Values of other authors as cited in patent US8735408B2, “Solid forms of 3-(4-(aminomethyl)-1-(5-methyl-7H-pyrrolo[2,3-d]pyrimidin-4-yl)piperidine-4-carboxamido)phenyl dimethylcarbamate” (Lexicon Pharmaceuticals, Inc., priority 2010, dated 2014).

Conditions: models of ophthalmic disease; see US-2009-0264450-A1

Structure (SMILES): Cc1c[nH]c2ncnc(N3CCC(CN)(C(=O)Nc4cccc(OC(=O)N(C)C)c4)CC3)c12 [3-(4-(aminomethyl)-1-(5-methyl-7H-pyrrolo[2,3-d]pyrimidin-4-yl)piperidine-4-carboxamido)phenyl dimethylcarbamate]
- effect on intraocular pressure: decrease intraocular pressure
